Assay results: ChEMBL document CHEMBL5113439, “Rationally Designed Amanitins Achieve Enhanced Cytotoxicity” (J Med Chem, 2022)
Numbered stars: 1 amine (or outer) side, 2 acyl side, 3 side chain; on linkers, the order of the positions; unused ones are H or OH. Bridge positions count the residues as written; N and C are the ends. Square brackets hold non-standard residues; d marks the D form. Peptide text beside a SMILES is read from it. Trp(2-yl) = O=C([C@H](Cc1c([*:3])[nH]c2ccccc12)N[*:1])[*:2]; X4 = O=C([C@H](Cc1c([*:3])[nH]c2ccc(O)cc12)N[*:1])[*:2]; Ile(4R-OH,5-OH) = C[C@H]([C@H](N)C(=O)O)[C@@H](O)CO; X5 = C[C@@H](S[*:3])[C@H](N[*:1])C(=O)[*:2]; X2 = CC[C@H](C)[C@@H](CNNC(=O)[*:2])N[*:1]; X3 = C[C@H](S[*:3])[C@H](N[*:1])C(=O)[*:2]; X1 = CS[C@H](C)[C@H](N[*:1])C(=O)[*:2]; Nva(3-Et) = CCC(CC)[C@H](N)C(=O)O; αMeI = CC[C@H](C)[C@](C)(N)C(=O)O; Hyp = O=C(O)[C@@H]1C[C@@H](O)CN1; Pen = CC(C)(S)[C@H](N)C(=O)O; azaGly = NNC(=O)O

Columns and labels:
[1] = Cytotoxicity against chinese hamster CHO cells assessed as reduction in cell viability incubated for 72 hrs by MTT assay; type: toxicity, cell-based, Cricetulus griseus
[2] = Inhibition of RNA polymerase 2 in human HeLa cells nuclear extract using DNA template as substrate incubated for 60 mins by TRA; type: subcellular, Nucleus
[3] = Cytotoxicity against human HEK293 cells assessed as reduction in cell viability incubated for 72 hrs by MTT assay; type: toxicity, cell-based
HepG2 = test: Cytotoxicity against human HepG2 cells assessed as reduction in cell viability incubated for 72 hrs by MTT assay; type: functional, cell-based; conditions: HepG2, 72 h
HeLa = test: Cytotoxicity against human HeLa cells assessed as reduction in cell viability incubated for 72 hrs by MTT assay; type: functional, cell-based

| Structure (SMILES) | IC50 at 72 h [1] [nM] | IC50 [2] [nM] | IC50 at 72 h [3] [nM] | IC50 (HepG2) [nM] | IC50 (HeLa) [nM] |
| --- | --- | --- | --- | --- | --- |
| C[C@H]([C@@H]1NC(=O)[C@@H]2C[C@@H](O)CN2C(=O)[C@H](CC(N)=O)NC(=O)[C@@H]2CSc3[nH]c4ccccc4c3C[C@H](NC1=O)C(=O)NCC(=O)N[C@H](C1CCCC1)C(=O)NCC(=O)N2)[C@@H](O)CO | 6900 | 47 | – | – | – |
| CCC(CC)[C@@H]1NC(=O)CNC(=O)[C@@H]2Cc3c([nH]c4ccc(O)cc34)SC[C@H](NC(=O)CNC1=O)C(=O)N[C@@H](CC(N)=O)C(=O)N1C[C@H](O)C[C@H]1C(=O)N[C@@H]([C@@H](C)[C@@H](O)CO)C(=O)N2 (cyclo(CN[Hyp][Ile(4R-OH,5-OH)][X4]G[Nva(3-Et)]G); thioether 1-5) | 2500 | 17.8 | 320 | – | – |
| CC[C@H](C)[C@@H]1NC(=O)CNC(=O)[C@@H]2Cc3c([nH]c4cc(O)ccc34)[S+]([O-])C[C@H](NC(=O)CNC1=O)C(=O)N[C@@H](CC(N)=O)C(=O)N1C[C@H](O)C[C@H]1C(=O)N[C@@H]([C@@H](C)[C@@H](O)CO)C(=O)N2 (stereo partly drawn) | 1000 | 1 | 1000 | 560 | 1000 |
| CC[C@H](C)[C@@H]1NC(=O)CNC(=O)[C@@H]2Cc3c([nH]c4ccccc34)SC[C@H](NC(=O)CNC1=O)C(=O)N[C@@H](CC(N)=O)C(=O)N1C[C@H](O)C[C@H]1C(=O)N[C@@H]([C@@H](C)[C@@H](O)CO)C(=O)N2 (cyclo(CN[Hyp][Ile(4R-OH,5-OH)][Trp(2-yl)]GIG); thioether 1-5) | 1300 | 9.5 | – | – | – |
| CCC(CC)[C@@H]1NC(=O)CNC(=O)[C@@H]2Cc3c([nH]c4ccccc34)SC[C@H](NC(=O)CNC1=O)C(=O)N[C@@H](CC(N)=O)C(=O)N1C[C@H](O)C[C@H]1C(=O)N[C@@H]([C@@H](C)[C@@H](O)CO)C(=O)N2 (cyclo(CN[Hyp][Ile(4R-OH,5-OH)][Trp(2-yl)]G[Nva(3-Et)]G); thioether 1-5) | 780 | 8.5 | 370 | – | – |
| CCC(CC)[C@@H]1NC(=O)CNC(=O)[C@@H]2Cc3c([nH]c4ccccc34)S[C@@H](C)[C@H](NC(=O)CNC1=O)C(=O)N[C@@H](CC(N)=O)C(=O)N1C[C@H](O)C[C@H]1C(=O)N[C@@H]([C@@H](C)[C@@H](O)CO)C(=O)N2 (cyclo(G[Nva(3-Et)]G[X3]N[Hyp][Ile(4R-OH,5-OH)][Trp(2-yl)]); thioether 4-8) | 610 | 9.5 | 200 | 110 | 600 |
| CC[C@H](C)[C@@H]1NC(=O)CNC(=O)[C@@H]2Cc3c([nH]c4ccc(O)cc34)S[C@@H](C)[C@H](NC(=O)CNC1=O)C(=O)N[C@@H](CC(N)=O)C(=O)N1C[C@H](O)C[C@H]1C(=O)N[C@@H]([C@@H](C)[C@@H](O)CO)C(=O)N2 (cyclo(GIG[X3]N[Hyp][Ile(4R-OH,5-OH)][X4]); thioether 4-8) | 6900 | 14.7 | 880 | – | – |
| CC[C@H](C)[C@]1(C)NC(=O)NNC(=O)[C@@H]2Cc3c([nH]c4ccccc34)SC[C@H](NC(=O)CNC1=O)C(=O)N[C@@H](CC(N)=O)C(=O)N1C[C@H](O)C[C@H]1C(=O)N[C@@H]([C@@H](C)[C@@H](O)CO)C(=O)N2 (cyclo(CN[Hyp][Ile(4R-OH,5-OH)][Trp(2-yl)][azaGly][αMeI]G); thioether 1-5) | 2400 | 5.3 | 450 | – | – |
| CC[C@H](C)[C@@H]1NC(=O)CNC(=O)[C@@H]2Cc3c([nH]c4ccccc34)S[C@@H](C)[C@H](NC(=O)CNC1=O)C(=O)N[C@@H](CC(N)=O)C(=O)N1C[C@H](O)C[C@H]1C(=O)N[C@@H]([C@@H](C)[C@@H](O)CO)C(=O)N2 (cyclo(GIG[X3]N[Hyp][Ile(4R-OH,5-OH)][Trp(2-yl)]); thioether 4-8) | 1300 | 10 | 510 | – | – |
| CC[C@H](C)[C@@H]1NC(=O)CNC(=O)[C@@H]2Cc3c([nH]c4ccccc34)SC(C)(C)[C@H](NC(=O)CNC1=O)C(=O)N[C@@H](CC(N)=O)C(=O)N1C[C@H](O)C[C@H]1C(=O)N[C@@H]([C@@H](C)[C@@H](O)CO)C(=O)N2 (cyclo(GIG[Pen]N[Hyp][Ile(4R-OH,5-OH)][Trp(2-yl)]); thioether 4-8) | 9300 | 17.7 | – | – | – |
| CC[C@H](C)[C@H]1CNNC(=O)N[C@H]2CSc3[nH]c4ccccc4c3C[C@H](NC(=O)[C@H]([C@@H](C)[C@@H](O)CO)NC(=O)[C@@H]3C[C@@H](O)CN3C(=O)[C@H](CC(N)=O)NC2=O)C(=O)NCC(=O)N1 (cyclo(CN[Hyp][Ile(4R-OH,5-OH)][Trp(2-yl)]G[X2]); thioether 1-5) | 380 | 4.7 | 460 | 2700 | 830 |
| CC[C@H](C)[C@@H]1NC(=O)CNC(=O)[C@@H]2Cc3c([nH]c4ccccc34)S[C@H](C)[C@H](NC(=O)CNC1=O)C(=O)N[C@@H](CC(N)=O)C(=O)N1C[C@H](O)C[C@H]1C(=O)N[C@@H]([C@@H](C)[C@@H](O)CO)C(=O)N2 (cyclo(GIG[X5]N[Hyp][Ile(4R-OH,5-OH)][Trp(2-yl)]); thioether 4-8) | > 20000 | > 128 | – | – | – |
| CO[C@H](C)[C@@H]1NC(=O)CNC(=O)[C@@H]2Cc3c([nH]c4ccccc34)SC[C@H](NC(=O)CNC1=O)C(=O)N[C@@H](CC(N)=O)C(=O)N1C[C@H](O)C[C@H]1C(=O)N[C@@H]([C@@H](C)[C@@H](O)CO)C(=O)N2 (cyclo(CN[Hyp][Ile(4R-OH,5-OH)][Trp(2-yl)]GT(Me)G); thioether 1-5) | > 20000 | 42 | – | – | – |
| CCC(CC)[C@@H]1NC(=O)CNC(=O)[C@@H]2Cc3c([nH]c4ccc(O)cc34)S[C@@H](C)[C@H](NC(=O)CNC1=O)C(=O)N[C@@H](CC(N)=O)C(=O)N1C[C@H](O)C[C@H]1C(=O)N[C@@H]([C@@H](C)[C@@H](O)CO)C(=O)N2 (cyclo(G[Nva(3-Et)]G[X3]N[Hyp][Ile(4R-OH,5-OH)][X4]); thioether 4-8) | 2400 | 13.8 | 510 | – | – |
| CS[C@H](C)[C@@H]1NC(=O)CNC(=O)[C@@H]2Cc3c([nH]c4ccccc34)SC[C@H](NC(=O)CNC1=O)C(=O)N[C@@H](CC(N)=O)C(=O)N1C[C@H](O)C[C@H]1C(=O)N[C@@H]([C@@H](C)[C@@H](O)CO)C(=O)N2 (cyclo(CN[Hyp][Ile(4R-OH,5-OH)][Trp(2-yl)]G[X1]G); thioether 1-5) | 5600 | 8.6 | 1500 | > 10000 | 4000 |
